For data set [1] the following is noted: rabbits, liposomal preparations s.c. 100 nmol/kg, 3 rabbits per group; passes if below 1.1° C. The procedure, abridged: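 Pyrogenicity was tested in New Zealand albino rabbits (3 per group) given liposomal preparations at 100 nmol/kg s.c., with temperature taken at 1, 2, 3, 4, 6 and 24 h. Controls were empty liposomes, liposomal and free MDP (50.7 nmol/kg) and B30-norAbu-MDP. A pass required summed ΔTmax below 1.1 °C.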

Data set [2] has as its system Trichophyton mentagrophytes TM 179. Nature of the data set: Adjuvant activity for hsp60 DNA vaccine against ringworm. The following applies: per animal. Details: key: semi-quantitative 0 to +++ method (where U=ulceration) for evaluation of dermal reactions, i.e. pathological lesions; semi-quantitative 0 to +++ method (where U=ulceration) for evaluation of dermal reactions, i.e. pathological lesions; semi-quantitative 0 to +++ method (where U=ulceration) for evaluation of dermal reactions, i.e. pathological lesions; semi-quantitative 0 to +++ method (where U=ulceration) for evaluation of dermal reactions, i.e. pathological lesions; U=ulceration. Type of data set: in vivo, guinea pigs.

In another data set the test system is S. typhimurium. Nature of the data set: Stimulation of innate immunity against Salmonella Typhimurium. Type of data set: in vivo, BALB/c mice. To be noted: liposomal preparations. An excerpt: Test compounds at doses of 5, 10, 25, 50, 100 and 200 nmol per mouse were applied in., s.c., i.v., or p.o. 3 and 1 days before experimental infection (10 animals per group). Various organs (intestines, liver, spleen, lungs) were examined for the presence of salmonellae on day 30 post infection. Results were expressed as numbers of colony forming units (CFU) of S. typhimurium per 1 gram of tissue. Statistically significant differences in numbers of CFU between the individual experimental groups were calculated by one-way analysis of variance.

The next data set deals with Salmonella enteritidis. Description: Stimulation of innate immunity against Salmonella Enteritidis. To be noted: for protective effect / survival rate in S. Enteritidis infection: 0 or 1 case of death by day 12; for Day 6 Intest.: clear/infected/dead / Day 6 Liver: clear/infected/dead / Day 6 Lungs: clear/infected/dead / Day 6 Spleen: clear/infected/dead / Day 12 Intest.: clear/infected/dead / Day 12 Liver: clear/infected/dead / Day 12 Lungs: clear/infected/dead / Day 12 Spleen: clear/infected/dead: liposomal, 20 nmol per dose p.o. 72 and 24 h before infection (LD50), 5 mice.

In the next data set the test system is C. albicans strain 2091. Description: Stimulation of innate immunity to Candida albicans infection, survival. To be noted: s.c. 24 h after i.v. infection, vs PBS control, FIG. 20.
Data set [3] has as its system r-hsp90 (Candida albicans hsp90) specific IgG antibodies. Nature of the data set: Proteoliposome vaccine against C. albicans hsp90: antibody (humoral) response, ELISA. The format is in vivo, BALB/c mice. To be noted: Experiment 12.2; liposomal compound (5%) + Ni-HSP90, boost day 14; FIG. 13. Here is the method:
Proteoliposomes were prepared by coupling recombinant hsp90 antigen (r-hsp90, 6×HISTag) via a metal chelating lipid to liposomes containing muramyl glycopeptide derivatives as adjuvant component. BALB/c […] mice 4 to 5 weeks old (female 20±2 g, 5 animal per group) were immunized by the intradermal route either with 20 μg of free or liposomal r-hsp90 (volume of 60 μl) either with or without L18-norAbu-MDP and boosted 21 days later by the same composition of experimental vaccine. FCA was used as positive control r-hsp90. Liposomal vaccine composition 20 μg of rHSP90 antigen, 5% metallochelating lipid, 5% particular MT analogue, 90% phospolipids.
Blood samples were collected from the tail vein into heparinised capillary PCV tubes. After centrifugation, the upper part of the tube, containing […] blood serum, was cut off, thrown into […] diluting solution and thoroughly shaken. Thus, a basic dilution of 1:33 was obtained. The pre-diluted sera were kept at −20° C. Blood samples were collected before the first immunization, 2 weeks thereafter and subsequently at weekly intervals up to the 4th week after the second immunisation. Specific IgG antibodies in blood serum samples were determined by the standard indirect ELISA procedure. The data obtained were processed statistically using the non-parametric Mann-Whitney U-test.
Proteoliposomes with muramyl glycopeptide derivatives were prepared as described above, but the boost was carried out already after 14 days. The liposomal vaccine composition was as for Experiment Set 1: 20 μg of rHSP90 antigen, 5% metallochelating lipid, 5% particular MT analogue, 90% phospolipids.
Controls: Aluminum hydroxide (AlOH) and Freund complete adjuvans (FCA) were used as positive controls. PBS with empty liposomes was used as negative control (control). Humoral response was tested at day 14 after vaccination (post priming) and at day 20 after vaccination (post booster). Antibody titres were wer assayed by ELISA.
(In general: ELISA stands for enzyme-linked immunosorbent assay.)

Data set [4] concerns NK sensitive K562 cell line. Description: NK cell cytotoxicity of human PBMC, 51Cr-release against K562. Type of data set: cell-based. The method, boiled down:
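Healthy-donor PBMC effectors were tested in a 4 h 51Cr-release assay at effector:target 16:1, with or without compound at 10^−7 mol/ml. Cytotoxicity was renormalized to untreated controls set at 100%.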

Data set [5] has as its system granulocyte-macrophage progenitor cells (GM-CFC). Description: Colony stimulating activity (CSA) of serum on GM-CFC. Type of data set: in vivo, mouse. The following applies: liposomal compounds; FIG. 32. Here is the method: Determination of Colony stimulating activity (CSA) and co-stimulating activity (CoSA) in serum: Blood was taken at intervals from 5 to 48 h after injection of the test compounds, and the ability of the sera from treated mice to stimulate in vitro growth of colonies from granulocyte-macrophage progenitor cells (GM-CFC) was determined. CoSA was determined as the ability of tested compounds, sera of treated mice, or conditioned medium from cultures of adherent stromal cells to enhance the number of GM-CFC colonies induced by a sub-optimal concentration of rmIL-3 in the above-described GM-CFC assay. The concentration of rmIL-3 was adjusted to a value which yielded one third of the maximum number of colonies on a dose-dependent curve.

For data set [6], the system named is GM-CFC progenitors in bone marrow. Nature of the data set: GM-CFC recovery, test compounds before sub-lethal irradiation. Type of data set: in vivo, ICR/CD-1 mice. To be noted: s.c. 100 nmol 24 h before 6 Gy, day 13, FIGS. 33-35. Here is the method:
Institite of Cancer Research (ICR/CD-1) mice (female, age of 3 months, 3-4 per group) were stimulated by s.c. administration of test compounds (volume of 200 μl, 100 nmol per dose) 24 h before sublethal γ-irradiation (6 Gy, ^60Co γray source Chisostat, Chirana Ltd., Czech Republic, at a dose of 0.285 Gy/min.). Mice were sacrified at day 13 and recovery of GM-CFC in femour was assayed by counting of colonies (CFC) formed after cultivation in medium. Non-irradiated mice were used as control for normal GM-CFC count in femour. PBS and empty liposomes were used as controls for spontaneous recovery. Liposomal MDP was used as reference standard.
The following parameters of hemopoiesis were evaluated: • a) Blood leukocyte counts and bone marrow cellularity. Blood leukocytes (samples of blood drawn from an incision of the tail vein) and nucleated cell elements of the femoral bone marrow (femoral diaphyses flushed with saline) were estimated by means of Coulter Counter (Model ZN, Coulter Electronics). • b) Colony-forming cells in spleen. Endogenous spleen colony-forming units (E-CFUs) were measured on day 9 post the whole-body irradiation with 6.5 Gy (5 mice per group) according to Till and McCulloch. • c) GM-CFC progenitors in bone marrow. Femoral bone marrow cells were obtained from mice by flushing the femour with sterile IMDM medium. Harvested cells were calculated and diluted to 1.5×10^5 cells/ml and plated in triplicate in a semisolid environment created by plasma clot (Iscovess modification of Dulbecco's medium, 20% of fetal calf serum, 10% of colony-stimulating factor, 10% of citrate plasma, and CaCl2 1.5 mg/ml). The cultures were incubated for 7 days at 37° C. in 5% CO2. Colonies of at least 50 cells were scored at 40× magnification.
Statistical significance between individual experimental groups of mice in hemopoietic parameters was calculated by one-way analysis of variance. The Newman-Keuls test for comparison of all pairs of columns and the Dunnett test for comparison of all columns with the control column were used in the analysis.

The nature of data set [7]: Survival after lethal irradiation (10 Gy). Type of data set: in vivo, mice (strain ICR). To be noted: 200 nmol s.c. 24 h before 10 Gy; FIG. 37. Here is the method: Preparations (200 nmol of active substance) were applied to mice (strain ICR, female, 3 months of age, 10 mice per group) by s.c. route 24 h before irradiation (radiation dose of 10 Gy from a ^60Co gamma-ray source at a dose rate of 0.285 Gy/min). PBS and empty liposome served as negative controls, free and liposomal muramyl dipeptide (MDP) served as positive controls.

The test system of data set [8] is Friend leukemia virus (FLV). Description: Friend leukemia virus infection: survival, TER-119+ cells, spleen. The following applies: day 16; FIG. 24.
For data set [9], the system named is NK-sensitive YAC1 target cells. Description: NK cell-mediated cytotoxicity of spleen mononuclear cells, 51Cr-release against YAC1. To be noted: FLV-inoculated mice, day 16, 18 h incubation with YAC1; FIG. 26.
Setting [10] is: group 1: 200 μg adjuvant at −48 h + 20 μg DNA.
The mark [11] stands for this setting: group 2: 200 μg adjuvant at −24 h + 20 μg DNA.
Setting [12] is: group 3: 200 μg adjuvant at 0 h + 20 μg DNA.
[13] abbreviates: group 4: 200 μg adjuvant at +24 h + 20 μg DNA.

Each structure is given as a SMILES string. Where “and” joins values, the source holds several entries; their conditions need not be identical. Equal entries are not always repeated. Entries after “also recorded” stand apart in the source; their conditions may differ.

Take `CCCCCCCCCCCCCCC(CCCCCCCCCCCCCC)C(=O)OC[C@H]1OC(O)[C@H](NC(C)=O)[C@@H](OCC(=O)N[C@@H](CC)C(=O)N[C@H](CCC(=O)O)C(N)=O)[C@@H]1O` (some centres unmarked) [B30-norAbu-MDP]: the “+ΔTmax (Sum of ΔTmax)” value in [1] was found to be 0.5 °C. Also, the “Skin reaction Day 12” value in data set [2] (group 1: 200 μg adjuvant at −48 h + 20 μg DNA electroporation prime and boost) was “+ and ++”. Moreover, in data set [2] (setting [10]), the “Skin reaction Day 21” value is “+++ (2×) and ++ (2×)”; the “Skin reaction Day 28” value is listed as “+”. Besides, the “Skin reaction Day 12” value in data set [2] (group 2: 200 μg adjuvant at −24 h + 20 μg DNA electroporation prime and boost) is “+++ (2×) and ++”. Also, in data set [2] (setting [11]), the “Skin reaction Day 21” value was “++ (2×) and + (2×)”; the “Skin reaction Day 28” value was “+ (2×) and 0”. Besides, the “Skin reaction Day 12” value in [2] (group 3: 200 μg adjuvant at 0 h + 20 μg DNA electroporation prime and boost) was “+++ and + (2×)”. Besides, in data set [2] (setting [12]), the “Skin reaction Day 21” value is listed as “+” and the “Skin reaction Day 28” value came to 0. For the same compound, the “Skin reaction Day 12” value in data set [2] (group 4: 200 μg adjuvant at +24 h + 20 μg DNA electroporation prime and boost) was “+++ and + (2×)”. For the same compound, in data set [2] (setting [13]), the “Skin reaction Day 21” value was “++”; the “Skin reaction Day 28” value is “+ (2×) and 0 (2×)”. Besides, the “induction of immune responses in intestines” value in the data set on S. typhimurium is listed as “able to induce immune responses in intestines”. Also, in the data set with Salmonella enteritidis, the “protective effect / survival rate in S. Enteritidis infection” value is reported as “good protective effects”, the “Day 6 Intest.: clear/infected/dead” value was 5/0/0, the “Day 6 Liver: clear/infected/dead” value is reported as 4/1/0 and the “Day 6 Lungs: clear/infected/dead” value is 5/0/0. Further, in the data set on Salmonella enteritidis, the “Day 6 Spleen: clear/infected/dead” value is listed as 4/1/0, the “Day 12 Intest.: clear/infected/dead” value is recorded as 4/0/1, the “Day 12 Liver: clear/infected/dead” value is 4/0/1 and the “Day 12 Lungs: clear/infected/dead” value is 4/0/1. In addition, the “Day 12 Spleen: clear/infected/dead” value in the data set on Salmonella enteritidis was 4/0/1. Further, the “survival time and survival rate in C. albicans infection” value in the data set with C. albicans strain 2091 (listed as free (non-liposomal) B30-norAbuMDP) is reported as “lesser effect”. Moreover, the “survival time and survival rate in C. albicans infection” value in the data set on C. albicans strain 2091 (listed as free B30-Nor-abuMDP) is “No effect”.

Turning to `CCCCCCCCCCCCCCCCCC(=O)NCCCC[C@H](NC(=O)CC[C@@H](NC(=O)[C@H](CC)NC(=O)CO[C@H]1[C@H](O)[C@@H](CO)OC(O)[C@@H]1NC(C)=O)C(N)=O)C(=O)O` (stereo partly drawn) [Compound 32, N-[2-O-(2-Acetamido-2,3-dideoxy-α-D-glucopyranosid-3-yl)-glycoloyl]-L-α-aminobutanoyl-D-isoglutaminyl-L-lysine(stearoyl)], the “+ΔTmax (Sum of ΔTmax)” value in data set [1] was found to be 0.5 °C. In addition, the “antibody response to r-hsp90 proteoliposomes” value in data set [3] was “strong and comparable to AlOH”. The “lag time to reach full NK stimulating activity” value in data set [4] (no vs 18 h pre-incubation) is reported as “most pronounced”. Besides, in data set [4] (range 0.1 μM-100 μM, FIG. 28), the “dose response of NK cell activity” value is “negative dose response”. The “GM-CFC stimulating activity (CSA) in serum” value in data set [5] was “substantially better”. Further, the “GM-CFC progenitor cells in bone marrow” value in data set [6] is “strongest effect”. Further, the “GM-CFC progenitor cells in bone marrow” value in data set [6] (listed as compound 32) is “best compound”. The “survival of lethally irradiated mice” value in data set [7] is “best compound; also recorded: best performance”. For the same compound, in the data set with Salmonella enteritidis, the “protective effect / survival rate in S. Enteritidis infection” value is reported as “good protective effects”, the “Day 6 Intest.: clear/infected/dead” value is 5/0/0, the “Day 6 Liver: clear/infected/dead” value is 3/2/0 and the “Day 6 Lungs: clear/infected/dead” value is on record as 4/1/0. Besides, in the data set on Salmonella enteritidis, the “Day 6 Spleen: clear/infected/dead” value is listed as 3/2/0, the “Day 12 Intest.: clear/infected/dead” value is 2/3/0, the “Day 12 Liver: clear/infected/dead” value is reported as 1/4/0 and the “Day 12 Lungs: clear/infected/dead” value is 4/1/0. The “Day 12 Spleen: clear/infected/dead” value in the data set on Salmonella enteritidis is listed as 1/4/0. The “clonal expansion of TER-119+ erythroleukaemia cells in spleen” value in [8] was “dose-dependent, positive effect”. Besides, the “NK cell activity (cell-mediated cytotoxicity of SMCs)” value in [9] is on record as “stimulate NK cell functional activity”.
